The subject of assay [1] is MC38 colon carcinoma tumors. Nature of the assay: MC38 tumor growth after local ablative IR and/or RA. It counts as in vivo, mouse.
Assay [2] has as its system immune cells in tumors. The experiment in a line: Flow cytometric analysis of immune cells in treated MC38 tumors and draining lymph nodes. It counts as in vivo, mouse. Particulars: FTY720 administration, after IR+RA treatment. From the text: Single cell suspensions were obtained as previously described (40). Cells were blocked with anti-Fc receptor (2.4 G2, BioXCell, Lebanon, New Hampshire, United States of America) and stained for live/dead with Zombie UV, followed staining using antibodies against CD45, CD4, CD8, NK1.1, CD11b, CD11c, Ly6C, Ly6G, F4/80, CD44, CD62L.
The following antibodies were used for high-dimensional flow analysis: BV605-CX3CR, BV650-XCR1, PB-CD11 b, BV510-CD24, BV711-CD64, BV785-F4/80, AF532-CD45, PerCP-Cy5.5-1-A/I-E, PerCP-eFluor710-Flt3, PE-Cy7-CD11c, FITC-Ly6C, PE-iNOS, PE-Dazzle 594-CD103, APC-TNF, Alexa Fluor 700-CD206, and APC-Cy7-SIRPα. For IFN-γ and GrzB (515407) staining, cells were cultured with PMA/ionomycin and brefeldin A (423303, BioLegend, San Diego, California, United States of America) for 6 hours followed by intracellular staining using BD fix/perm intracellular staining kit (554714, BD Biosciences, Franklin Lakes, New Jersey, United States of America). For TNF-α staining, cells were stimulated by PMA/ionomycin and brefeldin A for 4 hours followed by intracellular staining. Foxp3 (17-5773-82, Thermo Fisher Scientific, Waltham, Massachusetts, United States of America) Ki67 (Clone 16-A8, BioLegend, San Diego, California, United States of America) and iNOS staining were performed following Foxp3 staining protocol (00-5523-00, Thermo Fisher Scientific, Waltham, Massachusetts, United States of America). Cells were analyzed on Fortessa flow cytometer (BD Biosciences, Franklin Lakes, New Jersey, United States of America) or on Aurora spectral cytometer (Cytek Biosciences, Fremont, California, United States of America. Data was analyzed with software sold under the tradename FLOWJO software (FlowJo LLC, Ashland, Oregon, United States of America).
Immune cells in tumors 4 days after the start of the treatment were examined. […] In CD11b+ subsets, Ly6C^+ cells, including CD11c^+Ly6C^+ cells, increased by 4-fold in tumors receiving the combination treatment. […] Next, the DC population was examined by analyzing high-dimensional flow cytometry data using traditional dendritic cell (DC) markers. Monocyte-derived dendritic cells (MoDCs) (Ly6C^+CD11 b^+CD11c^+ MHC-II^+CXCR3^+CD64^+SIRPα^+CD206^− cells), a low level of type two dendritic cells (DC2s) (Ly6C^−CD11b^+CD11c^+MHC-11^+CXCR3^+CD64^−SIRPα+CD206^−) and a very low level of type one dendritic cells (DC1s) (Ly6C^−CD11b^−CD11c^+MHC-11^+ CXCR1^+CD103^+CD64^−) were detected in IR and RA treated tumors.

Assay [3] has as its system bone marrow-derived DCs (BMDCs). The experiment in a line: iNOS induction in bone marrow-derived dendritic cells in vitro. Particulars: addition of IFN-γ to BMDCs cultured with RA. The format is cell-based, mouse. The protocol:
Femurs and tibias from 8- to 10-week-old mice were harvested. BMDCs were derived as described (40). The cultured BMDC were collected on day 6 for further experiments. For Inf-MAC induction in vitro, bone marrow cells were cocultured with the presence of 200 μM RA. On day 6, indicated amount of IFN-γ was added directly to the culture. Cells were stained for iNOS and TNF-α after 24-36 hours and analyzed using flow cytometry.

Counter-ions that a name gives are not always drawn.

Take `CC(=N)NCc1cccc(CN)c1.Cl.Cl` [1400 W, N-[[-(aminomethyl)phenyl]methyl]-ethanimidamide dihydrochloride]: the “antitumor efficacy of combined IR and RA treatment” value in assay [1] (iNOS inhibitor 1400 W administered in vivo) is reported as “significantly diminished”. For `CCCCCCCCc1ccc(CCC(N)(CO)CO)cc1` [FTY720, fingolimod hydrochloride], the “efficacy of IR+RA treatment” value in assay [1] (FTY720 20 μg per dose by gavage every day for 7 days) is “diminished to the level of IR alone”. Besides, the “response to IR” value in assay [1] (FTY720 20 μg per dose by gavage every day for 7 days, IR alone) is listed as “not affected”. Further, the “iNOS production in Inf-MACs in tumors and in circulating blood” value in assay [2] is “abolishes increased iNOS production”.

B1: IFN-γ: interferon-gamma added to BMDC culture (protein, UniProt P01580 23-155, looked up)
Interferon gamma: HGTVIESLESLNNYFNSSGIDVEEKSLFLDIWRNWQKDGDMKILQSQIISFYLRLFEVLKDNQAISNNISVIESHLITTFFSNSKAKKDAFMSIAKFEVNNPQVQRQAFNELIRVVHQLLPESSLRKRKRSRC
For B1, the “iNOS production in BMDCs” value in assay [3] is given as “synergistically increased iNOS production in a dose dependent manner”.

Source of the values: US20240000741A1, “ALL-TRANS RETINOIC ACID ENHANCES RADIOTHERAPY AND OVERCOMES IMMUNE SUPPRESSION FOR CANCER THERAPY” (The University of Chicago, priority 2022, published 2024).
